Measurements from patent US20230391768A2, “IMIDAZOPYRIDINE DERIVATIVES AND AZA-IMIDAZOPYRIDINE DERIVATIVES AS JANUS KINASE 2 INHIBITORS AND USES THEREOF” (Dana-Farber Cancer Institute, Inc., priority 2018, published 2023).

Assays:
Experiment in all cases: KINOMEscan
Format in all cases: binding
[1] = biological target: ABL1(F317L)-phosphorylated (Homo sapiens (Human), UniProt P00519, F317L); conditions: read-out: percent of control
Experimental: (§1) In vitro profiling of Compound I-2 (1 μM) was performed using the DiscoveRx KINOMEscan® platform.

[2] = biological target: ABL1(H396P)-nonphosphorylated (Homo sapiens (Human), UniProt P00519, H396P); conditions: read-out: percent of control
Experimental: as §1

[3] = biological target: ABL1(M351T)-phosphorylated (Homo sapiens (Human), UniProt P00519, M351T); conditions: read-out: percent of control
Experimental: as §1

[4] = biological target: ABL1(T315I)-phosphorylated (Homo sapiens (Human), UniProt P00519, T315I); conditions: read-out: percent of control
Experimental: as §1

CAMK1G = CAMK1G (Homo sapiens (Human), UniProt Q96NX5); conditions: read-out: percent of control
Sequence of CAMK1G (Q96NX5 whole entry): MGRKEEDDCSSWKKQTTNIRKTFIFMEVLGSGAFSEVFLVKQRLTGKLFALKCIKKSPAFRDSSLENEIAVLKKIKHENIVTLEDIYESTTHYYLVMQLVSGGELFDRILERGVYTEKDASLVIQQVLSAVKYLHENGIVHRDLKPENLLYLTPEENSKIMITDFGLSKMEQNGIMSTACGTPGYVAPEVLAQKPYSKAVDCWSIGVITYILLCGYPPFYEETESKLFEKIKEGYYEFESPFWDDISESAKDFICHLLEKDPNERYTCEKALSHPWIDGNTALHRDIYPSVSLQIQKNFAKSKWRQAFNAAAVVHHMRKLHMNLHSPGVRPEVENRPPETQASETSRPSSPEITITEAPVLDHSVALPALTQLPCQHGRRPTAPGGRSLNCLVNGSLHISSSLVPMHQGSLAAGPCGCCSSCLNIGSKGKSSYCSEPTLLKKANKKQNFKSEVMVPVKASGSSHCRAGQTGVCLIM
Experimental: as §1

CAMKK2 = CAMKK2 (Homo sapiens (Human), UniProt Q96RR4); conditions: read-out: percent of control
Sequence of CAMKK2 (Q96RR4 whole entry): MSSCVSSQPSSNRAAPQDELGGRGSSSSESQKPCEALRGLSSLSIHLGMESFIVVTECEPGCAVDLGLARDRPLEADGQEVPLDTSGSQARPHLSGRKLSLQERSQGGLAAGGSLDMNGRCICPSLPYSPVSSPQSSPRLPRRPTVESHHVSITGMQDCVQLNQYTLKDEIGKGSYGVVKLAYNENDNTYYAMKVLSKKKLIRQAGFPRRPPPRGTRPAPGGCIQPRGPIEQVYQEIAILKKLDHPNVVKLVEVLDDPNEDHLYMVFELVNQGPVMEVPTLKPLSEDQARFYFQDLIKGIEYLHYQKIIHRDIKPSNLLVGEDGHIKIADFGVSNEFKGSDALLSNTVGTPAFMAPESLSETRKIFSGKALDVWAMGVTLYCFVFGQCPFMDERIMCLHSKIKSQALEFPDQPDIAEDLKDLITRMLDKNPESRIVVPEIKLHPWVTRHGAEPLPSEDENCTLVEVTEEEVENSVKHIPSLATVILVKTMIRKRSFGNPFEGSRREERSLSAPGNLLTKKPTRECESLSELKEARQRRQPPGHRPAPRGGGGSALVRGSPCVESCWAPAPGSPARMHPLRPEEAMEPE
Experimental: as §1

CSNK1G1 = CSNK1G1 (Homo sapiens (Human), UniProt Q9HCP0); conditions: read-out: percent of control
Experimental: as §1

DMPK = DMPK (Homo sapiens (Human), UniProt Q09013); conditions: read-out: percent of control
Experimental: as §1

EGFR(L858R) = EGFR(L858R) (Homo sapiens (Human), UniProt P00533, L858R); conditions: read-out: percent of control
Experimental: as §1

EPHA1 = EPHA1 (Homo sapiens (Human), UniProt P21709); conditions: read-out: percent of control
Experimental: as §1

EPHA3 = EPHA3 (Homo sapiens (Human), UniProt P29320); conditions: read-out: percent of control
Experimental: as §1

FGFR4 = FGFR4 (Homo sapiens (Human), UniProt P22455); conditions: read-out: percent of control
Experimental: as §1

HASPIN = HASPIN (Homo sapiens (Human), UniProt Q8TF76); conditions: read-out: percent of control
Experimental: as §1

IKK-alpha = IKK-alpha (Homo sapiens (Human), UniProt O15111); conditions: read-out: percent of control
Experimental: as §1

IRAK4 = IRAK4 (Homo sapiens (Human), UniProt Q9NWZ3); conditions: read-out: percent of control
Experimental: as §1

[5] = biological target: JAK3(JH1domain-catalytic) (Homo sapiens (Human), UniProt P52333); conditions: for remaining binding at 1 µM: JAK3(JH1domain-catalytic), read-out: percent of control
Sequence of JAK3(JH1domain-catalytic) (P52333 822-1111): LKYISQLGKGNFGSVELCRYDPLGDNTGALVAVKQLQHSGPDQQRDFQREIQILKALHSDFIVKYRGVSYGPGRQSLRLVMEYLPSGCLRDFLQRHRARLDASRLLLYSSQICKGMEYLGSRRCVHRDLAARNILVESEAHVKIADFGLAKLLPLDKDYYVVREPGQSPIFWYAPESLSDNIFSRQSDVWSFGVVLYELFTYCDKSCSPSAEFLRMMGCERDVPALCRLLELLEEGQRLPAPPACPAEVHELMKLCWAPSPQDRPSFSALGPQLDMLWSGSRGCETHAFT
Experimental: as §1

LTK = LTK (Homo sapiens (Human), UniProt P29376); conditions: read-out: percent of control
Sequence of LTK (P29376 17-864): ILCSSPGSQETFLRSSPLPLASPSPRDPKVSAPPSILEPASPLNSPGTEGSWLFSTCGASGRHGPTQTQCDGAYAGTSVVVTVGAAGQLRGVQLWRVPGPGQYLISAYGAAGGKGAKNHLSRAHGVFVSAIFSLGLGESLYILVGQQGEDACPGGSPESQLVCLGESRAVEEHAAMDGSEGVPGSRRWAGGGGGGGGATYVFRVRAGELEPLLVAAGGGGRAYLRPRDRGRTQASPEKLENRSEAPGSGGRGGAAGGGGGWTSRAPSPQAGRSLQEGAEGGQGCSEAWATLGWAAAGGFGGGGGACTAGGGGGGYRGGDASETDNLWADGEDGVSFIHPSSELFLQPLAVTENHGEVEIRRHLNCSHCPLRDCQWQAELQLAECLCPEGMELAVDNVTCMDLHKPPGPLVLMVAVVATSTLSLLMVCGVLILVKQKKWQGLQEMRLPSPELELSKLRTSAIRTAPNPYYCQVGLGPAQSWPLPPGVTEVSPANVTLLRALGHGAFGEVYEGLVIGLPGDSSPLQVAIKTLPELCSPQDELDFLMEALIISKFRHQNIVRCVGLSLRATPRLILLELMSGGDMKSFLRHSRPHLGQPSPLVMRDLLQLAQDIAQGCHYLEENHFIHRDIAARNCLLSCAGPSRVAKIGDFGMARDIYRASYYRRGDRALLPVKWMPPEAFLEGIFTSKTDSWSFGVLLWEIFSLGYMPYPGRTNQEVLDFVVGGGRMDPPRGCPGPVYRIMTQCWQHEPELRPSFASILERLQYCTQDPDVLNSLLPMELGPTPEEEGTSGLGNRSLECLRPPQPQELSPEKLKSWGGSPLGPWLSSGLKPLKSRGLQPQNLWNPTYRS
Experimental: as §1

MAP3K4 = MAP3K4 (Homo sapiens (Human), UniProt Q9Y6R4); conditions: read-out: percent of control
Experimental: as §1

MARK1 = MARK1 (Homo sapiens (Human), UniProt Q9P0L2); conditions: read-out: percent of control
Experimental: as §1

MARK3 = MARK3 (Homo sapiens (Human), UniProt P27448); conditions: read-out: percent of control
Experimental: as §1

MELK = MELK (Homo sapiens (Human), UniProt Q14680); conditions: read-out: percent of control
Experimental: as §1

MET(M1250T) = MET(M1250T) (Homo sapiens (Human), UniProt P08581, M1250T); conditions: read-out: percent of control
Experimental: as §1

MKNK1 = MKNK1 (Homo sapiens (Human), UniProt Q9BUB5); conditions: read-out: percent of control
Experimental: as §1

NEK3 = NEK3 (Homo sapiens (Human), UniProt P51956); conditions: read-out: percent of control
Experimental: as §1

PAK1 = PAK1 (Homo sapiens (Human), UniProt Q13153); conditions: read-out: percent of control
Experimental: as §1

PLK1 = PLK1 (Homo sapiens (Human), UniProt P53350); conditions: read-out: percent of control
Experimental: as §1

PRKCI = PRKCI (Homo sapiens (Human), UniProt P41743); conditions: read-out: percent of control
Sequence of PRKCI (P41743 whole entry): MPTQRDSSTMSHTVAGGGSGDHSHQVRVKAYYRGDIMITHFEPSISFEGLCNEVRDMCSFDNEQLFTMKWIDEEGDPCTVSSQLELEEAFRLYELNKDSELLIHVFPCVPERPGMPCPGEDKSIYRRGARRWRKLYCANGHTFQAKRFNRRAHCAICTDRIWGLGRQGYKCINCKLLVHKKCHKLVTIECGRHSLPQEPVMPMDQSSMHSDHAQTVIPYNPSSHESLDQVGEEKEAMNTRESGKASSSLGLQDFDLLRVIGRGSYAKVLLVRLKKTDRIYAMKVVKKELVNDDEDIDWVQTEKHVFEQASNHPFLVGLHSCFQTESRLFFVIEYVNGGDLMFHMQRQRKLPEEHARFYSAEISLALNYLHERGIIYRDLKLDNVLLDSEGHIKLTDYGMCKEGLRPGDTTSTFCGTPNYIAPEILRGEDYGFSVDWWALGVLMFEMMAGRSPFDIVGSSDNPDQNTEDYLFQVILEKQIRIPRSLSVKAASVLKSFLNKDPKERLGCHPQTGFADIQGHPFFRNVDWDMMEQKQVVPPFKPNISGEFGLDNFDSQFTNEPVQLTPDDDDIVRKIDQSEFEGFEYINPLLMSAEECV
Experimental: as §1

RET (V804M) = RET (V804M) (Homo sapiens (Human), UniProt P07949, V804M); conditions: read-out: percent of control
Sequence of RET (V804M) (P07949 29-1114 V804M): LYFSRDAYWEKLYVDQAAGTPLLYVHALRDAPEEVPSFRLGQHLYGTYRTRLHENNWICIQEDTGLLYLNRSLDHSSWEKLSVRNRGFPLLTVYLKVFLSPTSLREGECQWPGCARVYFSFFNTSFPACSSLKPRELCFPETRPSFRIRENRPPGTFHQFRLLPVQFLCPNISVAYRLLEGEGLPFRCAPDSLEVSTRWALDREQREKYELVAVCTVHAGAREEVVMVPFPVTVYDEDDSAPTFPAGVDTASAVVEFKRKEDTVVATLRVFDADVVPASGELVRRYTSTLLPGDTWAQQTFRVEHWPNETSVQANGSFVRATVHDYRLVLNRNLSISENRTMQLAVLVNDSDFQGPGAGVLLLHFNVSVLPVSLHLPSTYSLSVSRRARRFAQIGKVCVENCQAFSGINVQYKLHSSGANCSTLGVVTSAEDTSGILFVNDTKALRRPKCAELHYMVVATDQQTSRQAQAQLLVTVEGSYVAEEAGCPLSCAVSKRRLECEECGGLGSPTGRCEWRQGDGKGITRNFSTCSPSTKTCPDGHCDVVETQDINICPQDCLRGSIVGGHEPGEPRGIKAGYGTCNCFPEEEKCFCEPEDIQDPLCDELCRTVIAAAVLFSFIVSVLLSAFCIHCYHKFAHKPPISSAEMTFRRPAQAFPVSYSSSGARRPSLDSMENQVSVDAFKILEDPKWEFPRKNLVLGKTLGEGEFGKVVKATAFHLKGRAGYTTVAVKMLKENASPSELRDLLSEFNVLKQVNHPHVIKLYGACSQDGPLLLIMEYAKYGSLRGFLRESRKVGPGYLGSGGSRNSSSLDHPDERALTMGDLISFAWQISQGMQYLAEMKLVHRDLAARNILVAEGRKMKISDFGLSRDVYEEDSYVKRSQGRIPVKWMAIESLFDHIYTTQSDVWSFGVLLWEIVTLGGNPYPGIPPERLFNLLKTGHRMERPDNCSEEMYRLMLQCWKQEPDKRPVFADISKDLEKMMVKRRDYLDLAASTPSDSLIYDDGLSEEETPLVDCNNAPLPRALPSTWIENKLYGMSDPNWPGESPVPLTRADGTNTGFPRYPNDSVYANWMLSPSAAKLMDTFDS
Experimental: as §1

SRPK2 = SRPK2 (Homo sapiens (Human), UniProt P78362); conditions: read-out: percent of control
Experimental: as §1

STK35 = STK35 (Homo sapiens (Human), UniProt Q8TDR2); conditions: read-out: percent of control
Experimental: as §1

SYK = SYK (Homo sapiens (Human), UniProt P43405); conditions: read-out: percent of control
Experimental: as §1

SgK110 = SgK110 (Homo sapiens (Human), UniProt P0C264); conditions: read-out: percent of control
Experimental: as §1

TNNI3K = TNNI3K (Homo sapiens (Human), UniProt Q59H18); conditions: read-out: percent of control
Sequence of TNNI3K (Q59H18 whole entry): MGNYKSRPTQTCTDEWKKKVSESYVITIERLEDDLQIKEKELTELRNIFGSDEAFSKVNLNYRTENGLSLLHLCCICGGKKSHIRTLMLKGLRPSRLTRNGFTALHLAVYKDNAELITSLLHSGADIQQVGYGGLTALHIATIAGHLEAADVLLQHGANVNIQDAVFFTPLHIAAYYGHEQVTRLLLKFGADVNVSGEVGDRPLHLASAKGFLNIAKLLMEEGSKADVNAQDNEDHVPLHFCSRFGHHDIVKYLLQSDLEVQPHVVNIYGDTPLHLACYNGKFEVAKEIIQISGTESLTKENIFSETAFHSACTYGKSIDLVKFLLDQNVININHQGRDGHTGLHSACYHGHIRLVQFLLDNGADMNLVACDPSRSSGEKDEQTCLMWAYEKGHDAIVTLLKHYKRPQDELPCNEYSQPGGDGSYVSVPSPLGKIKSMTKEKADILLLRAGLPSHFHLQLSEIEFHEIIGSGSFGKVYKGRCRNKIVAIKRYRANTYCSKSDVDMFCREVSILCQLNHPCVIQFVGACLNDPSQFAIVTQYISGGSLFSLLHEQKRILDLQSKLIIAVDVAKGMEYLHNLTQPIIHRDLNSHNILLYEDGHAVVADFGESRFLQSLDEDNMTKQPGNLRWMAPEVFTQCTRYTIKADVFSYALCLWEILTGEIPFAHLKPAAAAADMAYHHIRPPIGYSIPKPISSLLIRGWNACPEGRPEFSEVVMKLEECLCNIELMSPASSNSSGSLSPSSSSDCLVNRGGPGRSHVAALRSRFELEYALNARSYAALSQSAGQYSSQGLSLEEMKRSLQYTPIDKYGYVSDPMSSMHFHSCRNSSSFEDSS
Experimental: as §1

TSSK1B = TSSK1B (Homo sapiens (Human), UniProt Q9BXA7); conditions: read-out: percent of control
Experimental: as §1

TXK = TXK (Homo sapiens (Human), UniProt P42681); conditions: read-out: percent of control
Experimental: as §1

VEGFR2 = VEGFR2 (Homo sapiens (Human), UniProt P35968); conditions: read-out: percent of control
Experimental: as §1

YANK3 = YANK3 (Homo sapiens (Human), UniProt Q86UX6); conditions: read-out: percent of control
Experimental: as §1

p38-beta = p38-beta (Homo sapiens (Human), UniProt Q15759); conditions: read-out: percent of control
Experimental: as §1

SMILES | remaining binding at 1 µM [1] | remaining binding at 1 µM [2] | remaining binding at 1 µM [3] | remaining binding at 1 µM [4] | remaining binding at 1 µM (CAMK1G) | remaining binding at 1 µM (CAMKK2) | remaining binding at 1 µM (CSNK1G1) | remaining binding at 1 µM (DMPK) | remaining binding at 1 µM (EGFR(L858R)) | remaining binding at 1 µM (EPHA1) | remaining binding at 1 µM (EPHA3) | remaining binding at 1 µM (FGFR4) | remaining binding at 1 µM (HASPIN) | remaining binding at 1 µM (IKK-alpha) | remaining binding at 1 µM (IRAK4) | remaining binding at 1 µM [5] | remaining binding at 1 µM (LTK) | remaining binding at 1 µM (MAP3K4) | remaining binding at 1 µM (MARK1) | remaining binding at 1 µM (MARK3) | also measured
CCN1CCN(Cc2cc(NC(=O)c3ccc(C)c(-c4ccc5nc(NC(=O)C6CC6)cn5n4)c3)cc(C(F)(F)F)c2)CC1 [Compound I-2, 3-(2-(cyclopropanecarboxamido)imidazo[1,2-b]pyridazin-6-yl)-N-(3-((4-ethylpiperazin-1-yl)methyl)-5-(trifluoromethyl)phenyl)-4-methylbenzamide] | 1.1% | 0% | 0.8% | 1.4% | 85% | 28% | 100% | 87% | 76% | 44% | 41% | 100% | 87% | 53% | 26% | 0% | 3.3% | 89% | 91% | 94% | selectivity for JAK3 over JAK2, JAK1, and TYK2 ([5]; KINOMEscan, 1 μM): more selective for JAK3 over JAK2, JAK1, and TYK2; remaining binding at 1 µM (MELK): 95%; remaining binding at 1 µM (MET(M1250T)): 9.9%; remaining binding at 1 µM (MKNK1): 76%; remaining binding at 1 µM (NEK3): 100%; remaining binding at 1 µM (PAK1): 81%; remaining binding at 1 µM (PLK1): 98%; remaining binding at 1 µM (PRKCI): 66%; remaining binding at 1 µM (RET (V804M)): 0.05%; remaining binding at 1 µM (SRPK2): 73%; remaining binding at 1 µM (STK35): 69%; remaining binding at 1 µM (SYK): 1.9%; remaining binding at 1 µM (SgK110): 75%; remaining binding at 1 µM (TNNI3K): 56%; remaining binding at 1 µM (TSSK1B): 96%; remaining binding at 1 µM (TXK): 16%; remaining binding at 1 µM (VEGFR2): 1.4%; remaining binding at 1 µM (YANK3): 91%; remaining binding at 1 µM (p38-beta): 60%
CCN1CCN(Cc2cc(NC(=O)c3ccc(C)c(-c4ccc5nc(NC(=O)C6CC6)cn5c4)c3)cc(C(F)(F)F)c2)CC1 [Compound I-6, 3-(2-(cyclopropanecarboxamido)imidazo[1,2-a]pyridin-6-yl)-N-(3-((4-ethylpiperazin-1-yl)methyl)-5-(trifluoromethyl)phenyl)-4-methylbenzamide] | 1.3% | 0% | 0.5% | 2.2% | 100% | 41% | 96% | 100% | 71% | 38% | 34% | 100% | 64% | 63% | 33% | 0% | 2% | 81% | 77% | 95% | remaining binding at 1 µM (MELK): 100%; remaining binding at 1 µM (MET(M1250T)): 42%; remaining binding at 1 µM (MKNK1): 91%; remaining binding at 1 µM (NEK3): 96%; remaining binding at 1 µM (PAK1): 78%; remaining binding at 1 µM (PLK1): 100%; remaining binding at 1 µM (PRKCI): 100%; remaining binding at 1 µM (RET (V804M)): 0%; remaining binding at 1 µM (SRPK2): 100%; remaining binding at 1 µM (STK35): 59%; remaining binding at 1 µM (SYK): 0.65%; remaining binding at 1 µM (SgK110): 57%; remaining binding at 1 µM (TNNI3K): 36%; remaining binding at 1 µM (TSSK1B): 76%; remaining binding at 1 µM (TXK): 19%; remaining binding at 1 µM (VEGFR2): 2%; remaining binding at 1 µM (YANK3): 100%; remaining binding at 1 µM (p38-beta): 62%
